The values that follow come from patent publication US11332463B2, “Spiropiperidine allosteric modulators of nicotinic acetylcholine receptors” (Merck Sharp & Dohme Corp., priority 2018, dated 2022).

Where two headings read alike, the source gives them in different places. Some results are limits rather than exact numbers.

This test concerns the target T1, human α7 nicotinic acetylcholine receptor (HEK cell line stably expressing human RIC-3 and human α7) (Homo sapiens, UniProt P36544).
T1 construct: host or cells: HEK cell line (PrecisION hnAChR α7/RIC-3)
The test can be described thus: Automated patch-clamp electrophysiology functional assay (Assay A), IonFlux HT, whole-cell population patch. In kind it is cell-based. On the technique in general: In patch-clamp work, channel activity is measured electrically.

Where [1] appears, read: HEK cells expressing human α7/RIC-3, test compound with or without 40 μM acetylcholine, holding potential −60 mV, room temperature, read-out: α7 nAChR Potency.
[2] abbreviates: automated patch-clamp electrophysiology functional assay (Assay A), read-out: α7 nAChR EC50.

T1 sequence (P36544 23-502): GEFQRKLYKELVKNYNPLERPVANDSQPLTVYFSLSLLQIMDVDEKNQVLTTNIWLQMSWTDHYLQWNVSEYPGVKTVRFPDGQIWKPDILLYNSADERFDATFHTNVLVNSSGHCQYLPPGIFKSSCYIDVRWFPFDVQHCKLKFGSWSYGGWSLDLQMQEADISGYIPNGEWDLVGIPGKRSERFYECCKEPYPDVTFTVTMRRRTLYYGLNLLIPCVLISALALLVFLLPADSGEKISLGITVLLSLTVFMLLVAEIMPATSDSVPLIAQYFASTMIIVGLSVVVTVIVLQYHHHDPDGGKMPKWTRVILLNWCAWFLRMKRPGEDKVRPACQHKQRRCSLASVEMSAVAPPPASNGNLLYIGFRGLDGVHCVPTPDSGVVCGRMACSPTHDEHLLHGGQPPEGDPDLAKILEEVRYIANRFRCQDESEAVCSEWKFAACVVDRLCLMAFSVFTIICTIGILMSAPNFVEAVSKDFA

Regarding `Cc1ccc(C)c(-c2noc(C3(C)C(F)(F)C34CCN(S(N)(=O)=O)CC4)n2)c1` (racemic) [Example C18], the EC50 runs as follows: under setting [1], 0.5 to 5 µM; under setting [2], 1.6 µM.
For the compound `NS(=O)(=O)N1CCC2(CC1)[C@H](c1noc(-c3c4c(nn3C3CC3)CCCC4)n1)C2(F)F` [Example E47], under setting [1], the EC50 lay within 0.1 to 0.5 µM.
Consider `NS(=O)(=O)N1CCC2(CC1)[C@H](c1noc(-c3cccnc3)n1)C2(F)F` [Example E56], for which the EC50 was 0.5 to 5 µM under setting [1] and 2.6 µM under setting [2].
For the compound `NS(=O)(=O)N1CCC2(CC1)[C@H](c1noc(-c3c(C(F)(F)F)cnn3C3CC3)n1)C2(F)F` [Example E48], the EC50 reads like this: under setting [1], below 0.1 µM; under setting [2], 0.06 µM.
The corresponding values for `Cc1cn(C2CC2)c2ccc(-c3nc([C@@H]4CC45CCN(S(N)(=O)=O)CC5)no3)cc12` [Example E1] are 0.1 to 0.5 µM and 0.31 µM.
Turning to `Cn1cc(-c2conc2C2CC2)nc1[C@@H]1C(F)(F)C12CCN(S(N)(=O)=O)CC2` [Example G7], the EC50 is, setting by setting: under setting [1], 0.5 to 5 µM; under setting [2], 1.6 µM.
With `NS(=O)(=O)N1CCC2(CC1)C[C@H]2c1noc(-c2ccc(OCC(F)(F)F)nc2)n1` [Example E63], the EC50 under setting [1] lay in the range of 0.5 to 5 µM.
In the case of `COc1ccc(Cl)cc1-c1noc(C2CC23CCN(S(=O)(=O)Cc2ccccn2)CC3)n1` (racemic) [Example B1], the EC50 is, setting by setting: under setting [1], 0.5 to 5 µM; under setting [2], 2.3 µM.
Regarding `Cc1cnn(C)c1-c1nc([C@@H]2C(F)(F)C23CCN(S(N)(=O)=O)CC3)no1` [Example 9, (2R)-2-[5-(1,4-Dimethyl-1H-pyrazol-5-yl)-1,2,4-oxadiazol-3-yl]-1,1-difluoro-6-azaspiro[2.5]octane-6-sulfonamide], the EC50 is, setting by setting: under setting [1], below 0.1 µM; under setting [2], 0.075 µM.
With `NS(=O)(=O)N1CCC2(CC1)[C@H](c1noc(-c3cnn4c3CCC4)n1)C2(F)F` [Example E42], the EC50 runs as follows: under setting [1], 0.5 to 5 µM; under setting [2], 1.1 µM.
Take `NS(=O)(=O)N1CCC2(CC1)[C@H](c1coc(-c3ccc(F)cc3C(F)(F)F)n1)C2(F)F` [Example 24, (2R)-1,1-Difluoro-2-{2-[4-fluoro-2-(trifluoromethyl)phenyl]-1,3-oxazol-4-yl}-6-azaspiro[2.5]octane-6-sulfonamide]: the EC50 is, setting by setting: under setting [1], below 0.1 µM; under setting [2], 0.09 µM.
For `NS(=O)(=O)N1CCC2(CC2c2nc(-c3cccc(OCC(F)(F)F)c3)no2)C(F)(F)C1` (centres unmarked) [Example 3, 4,4-Difluoro-1-{3-[3-(2,2,2-trifluoroethoxy)phenyl]-1,2,4-oxadiazol-5-yl}-6-azaspiro[2.5]octane-6-sulfonamide], the EC50 was 0.5 to 5 µM under setting [1] and 1.3 µM under setting [2].
Turning to `NS(=O)(=O)N1CCC2(CC1)C[C@H]2c1nnc(-c2cccc(C(F)(F)F)c2)o1` [Example F2], the EC50 under setting [1] lay within 0.5 to 5 µM.
Turning to `NS(=O)(=O)N1CCC2(CC1)[C@H](c1cc(-c3conc3C3CC3)no1)C2(F)F` [Example G8], the EC50 by setting is: under setting [1], below 0.1 µM; under setting [2], 0.016 µM.
For the compound `CC(C)Oc1cc(-c2nc([C@@H]3C(F)(F)C34CCN(S(N)(=O)=O)CC4)no2)ccn1` [Example E51], the EC50 by setting is: under setting [1], 0.5 to 5 µM; under setting [2], 0.53 µM.
For `CS(=O)(=O)N1CCC2(CC1)C(c1nc(-c3ccc(F)cc3C(F)(F)F)no1)C2(F)F` (centres unmarked) [Example 21, 1,1-Difluoro-2-{3-[4-fluoro-2-(trifluoromethyl)phenyl]-1,2,4-oxadiazol-5-yl}-6-(methylsulfonyl)-6-azaspiro[2.5]octane], the EC50 is 0.5 to 5 µM under setting [1] and 0.67 µM under setting [2].
Take `NS(=O)(=O)N1CCC2(CC1)C(c1nc(-c3ccnc(OC(F)F)c3)no1)C2(F)F` (centres unmarked) [Example C9]: the EC50 reads like this: under setting [1], 0.1 to 0.5 µM; under setting [2], 0.31 µM.
With `NS(=O)(=O)N1CCC2(CC1)[C@H](c1ccn(-c3ccc(F)cc3C(F)(F)F)n1)C2(F)F` (stereo in doubt) [Example 36, 1,1-Difluoro-2-{1-[4-fluoro-2-(trifluoromethyl)phenyl]-1H-pyrazol-3-yl}-6-azaspiro[2.5]octane-6-sulfonamide], the EC50 is 0.5 to 5 µM under setting [1] and 0.89 µM under setting [2].
As for `NS(=O)(=O)N1CCC2(CC1)C(c1nc(-c3c(C4CC4)noc3C(F)(F)F)no1)C2(F)F` (centres unmarked) [Example C15], the EC50 under setting [1] was below 0.1 µM.
As for `NS(=O)(=O)N1CCC2(CC2c2nc(-c3conc3C3CC3)no2)C(F)C1` (single isomer, unassigned) [Example I6], the EC50 reads like this: under setting [1], 0.5 to 5 µM; under setting [2], 0.84 µM.
The matching figures for `NS(=O)(=O)N1CCC2(CC2c2nc(-c3cccc(OC(F)F)c3)no2)C(F)C1` (single isomer, unassigned) [Example I1]: 0.5 to 5 µM and 0.75 µM.
On to `NS(=O)(=O)N1CCC2(CC1)[C@H](c1coc(-c3conc3C3CC3)n1)C2(F)F` [Example 31, (2R)-2-[2-(3-Cyclopropylisoxazol-4-yl)-1,3-oxazol-4-yl]-1,1-difluoro-6-azaspiro[2.5]octane-6-sulfonamide], for which the EC50 under setting [1] lay within 0.1 to 0.5 µM and the EC50 under setting [2] was found to be 0.13 µM.
Consider `NS(=O)(=O)N1CCC2(CC1)C[C@H]2c1nc(-c2conc2C2CC2)co1` [Example 23, (1R)-1-[4-(3-Cyclopropylisoxazol-4-yl)-1,3-oxazol-2-yl]-6-azaspiro[2.5]octane-6-sulfonamide], for which the EC50 reads like this: under setting [1], 0.5 to 5 µM; under setting [2], 1.4 µM.
As to `NS(=O)(=O)N1CCC2(C(F)C1)C(c1nc(-c3ccc(F)cc3C(F)(F)F)no1)C2(F)F` (centres unmarked) [Example I18], the EC50 by setting is: under setting [1], 0.1 to 0.5 µM; under setting [2], 0.32 µM.
Regarding `NS(=O)(=O)N1CCC2(CC1)C[C@H]2c1noc(-c2cccnc2OCC(F)(F)F)n1` [Example E59], the EC50 reads like this: under setting [1], 0.1 to 0.5 µM; under setting [2], 0.22 µM.
Regarding `Cn1nccc1-c1nc([C@@H]2C(F)(F)C23CCN(S(N)(=O)=O)CC3)no1` [Example E43], the EC50 reads like this: under setting [1], 0.1 to 0.5 µM; under setting [2], 0.5 µM.
The corresponding values for `N#Cc1ccccc1-c1nc([C@@H]2CC23CCN(S(N)(=O)=O)CC3)no1` [Example D3] are 5 to 50 µM and 5.3 µM.
Regarding `NS(=O)(=O)N1CCC2(CC1)C[C@H]2c1noc(-c2ccnn2C2CC2)n1` [Example E30], the EC50 runs as follows: under setting [1], 0.5 to 5 µM; under setting [2], 0.78 µM.
In the case of `NS(=O)(=O)N1CCC2(CC1)C[C@H]2c1noc(-c2cc(-n3ccnc3)ncc2C(F)(F)F)n1` [Example E31], the EC50 is, setting by setting: under setting [1], 0.5 to 5 µM; under setting [2], 4.3 µM.
The matching figures for `NS(=O)(=O)N1CCC2(CC1)C[C@H]2c1nc(-c2ccc(F)cc2C(F)(F)F)no1` [Example 5, (1R)-1-{3-[4-Fluoro-2-(trifluoromethyl)phenyl]-1,2,4-oxadiazol-5-yl}-6-azaspiro[2.5]octane-6-sulfonamide]: 0.5 to 5 µM and 1.2 µM.
The matching figures for `NS(=O)(=O)N1CCC2(CC1)C[C@H]2c1noc(-c2ccnnc2C2CC2)n1` [Example E50]: 0.5 to 5 µM and 1.4 µM.
On to `NS(=O)(=O)N1CCC2(CC1)C[C@H]2c1noc(-c2cccc(C(F)(F)F)c2)n1` [Example D1], for which the EC50 by setting is: under setting [1], 0.5 to 5 µM; under setting [2], 0.52 µM.
`NS(=O)(=O)N1CCC2(CC1)C(c1nc(-c3ccc(F)cc3C(F)(F)F)no1)C2(Cl)Cl` (racemic) [Example C17]: the EC50 by setting is: under setting [1], 0.5 to 5 µM; under setting [2], 2.7 µM.
